For experiment [1], the system named is gelatin. Put plainly: Advanced Glycation End Product Assay (AGE Assay), fluorescence intensity (FLR, glycation) readout. The class given is biochemical. Conditions: 24 hours. As for the experimental part: (§1) The AGE Assay provides an in vitro method of determining how a test agent impacts glycation. In particular, a material of interest can be applied to gelatin, which acts as a surrogate for collagen (i.e., a heterogeneous mixture of high-average-molecular-mass, water-soluble proteins present in collagen), at neutral pH range. A glycating reagent is added to the gelatin matrix to initialize glycation reaction. The resulting AGEs detected by a spectrophotometer. When testing a material of interest, such as lactobionic acid and/or white water lily extract is added to the gelatin sample, it reacts with the proteins in the gelatin, much in the same way as it would with collagen. Glycation reaction will be initiated when glycating reagent is added into this material and gelatin matrix and will produce AGEs. A positive (pos) glycation control group is set up the same way as testing material groups to contain gelatin and glycating reagent but less any treatment material. The positive control group depicts how much glycation and yellowness can be formed without perturbation by any treatment material. The spectrophotometer detects the fluorescence intensity (“FLR”) or yellowness (b*) associated with the resulting AGEs, which can then be correlated to the amount of glycation that occurs in skin. Lower b* and FLR values correspond to less AGEs, and thus less glycation.
(§2) Three replicates of each test samples are prepared in a 96-well plate (e.g., a FALCON brand 96-well tissue culture plate or equivalent) at equal and defined volume. The plate(s) containing the test samples are placed in a standard cell culture incubator (e.g., THERMO SCIENTIFIC FORMA brand incubator available from Fisher Scientific, Waltham, MA or equivalent) and incubated for the duration of the test at 37° C. with 5% CO2 and 95% relative humidity. Fluorescence intensity (FLR) and yellowness are measured at the start of test (time=0) and monitored for 24 hours. To measure FLR or b*, the plate(s) containing the test samples are removed from the incubator and placed in a SPECTRAMAX Plus brand spectrophotometer (available from Molecular Devices, Sunnyvale, California) or equivalent. To detect fluorescence intensity (“FLR”), the spectrophotometer is set at 400/465 nm (ex/em). To detect yellowness (b*), the spectrophotometer is set to collect absorbance spectrum from 350 nm to 750 nm in 10 nm increments. The absorbance spectra from the yellowness measurement are then converted to L*a*b* values by a computer using suitable conversion software.
(§3) The change in fluorescence intensity (“ΔFLR”) is determined by comparing the FLR of a well at a sampling time point to the initial FLR at time=0. The change in yellowness (“Δb*”) at a particular time point is determined by comparing the initial b* value at time=0 to the b* value at the time point of interest. To determine the relative amount of glycation or yellowness formed due to a treatment effect compared to the positive glycation control group, which doesn't contain any active treatment, the ΔFLR and Δb* values from a treatment group is normalized against the corresponding values from the positive glycation control group (pos glycation) according to the following equation: […]
(§4) The test samples were prepared in triplicate for each testing group on a 96-well plate with 250 μl volume per well. Each well contains 2.25 mg gelatin (available from Sigma® as Catalog #G1393), the testing material(s) diluted to desired concentration, 40 mM DL-Glyceraldehyde (available from Sigma®, Catalog #G5001-5G), and a sufficient quantity of Dulbecco's phosphate buffered saline (“DPBS”) (available from Gibco's, Catalog #14190-144). The vehicle control contained 2.25 mg gelatin and a sufficient quantity of DPBS. The positive glycation control contained 2.25 mg gelatin, 40 mM DL-glyceraldehyde and DPBS.
(§5) The average glycation, ΔFLR, and yellowness, Δb*, were determined for each sample according to the AGE Assay described herein. The duration of the test was 24 hours. […]

Experiment [2] has as its system gelatin. Put plainly: Advanced Glycation End Product Assay (AGE Assay), yellowness (b*) readout. To be noted: 24 hours; for % Δb* (yellowness) from a treatment vs positive glycation control / Convert to % Δb* inhibition (100%-% Δb*) / Convert to % Δb* inhibition (100-% Δb*): samples 1-3. The format is biochemical. As for the experimental part:
as §1, §2, §3, §4, §5

Where [3] appears, read: 0.101% lactobionic acid, Table 4, samples 1-3.
Where [4] appears, read: 0.2% lactobionic acid, Table 2, samples 1-3.
Where [5] appears, read: 0.101% lactobionic acid, Table 3.

“And” between values parts separate entries of the source, which are not always exact repeats. Equal values may be shown once.

`O=C(O)[C@H](O)[C@@H](O)[C@H](O[C@@H]1O[C@H](CO)[C@H](O)[C@H](O)[C@H]1O)[C@H](O)CO` [LBA, lactobionic acid]: the “Mean % ΔFLR inhibition for each group” value was found to be 24% in the experiment on gelatin [1] (0.1% LBA, Table 2); 30% in the experiment with gelatin [1] (0.1% LBA, Table 6); 27% with gelatin [1] (0.101% lactobionic acid, Table 4); 44% with gelatin [1] (0.2% lactobionic acid, Table 2). Moreover, the “% ΔFLR (glycation) normalized vs positive glycation control” value with gelatin [1] (0.1% LBA, Table 2, samples 1-3) was 77% and 75%; with gelatin [1] (setting [3]), 73% and 74%; in the experiment with gelatin [1] (setting [4]), 55% and 56%. Moreover, the “Convert to % ΔFLR inhibition (100-% ΔFLR)” value with gelatin [1] (0.1% LBA, Table 2, samples 1-3) was 23% and 25%; in the experiment on gelatin [1] (0.1% LBA, Table 6, samples 1-3), 31% and 29% and 30%; in the experiment on gelatin [1] (setting [3]) it was 27% and 26%; with gelatin [1] (setting [4]) it was 45% and 44%. Further, in the experiment on gelatin [1] (0.1% LBA, Table 6, samples 1-3), the “% ΔFLR (glycation) normalized vs positive glycation ctrl” value was 69% and 71% and 70%. Also, the “Mean % Δb* inhibition for each group” value in the experiment on gelatin [2] (0.1% LBA, Table 1) amounted to 27%; in the experiment with gelatin [2] (0.1% LBA, Table 5), 32%; in the experiment on gelatin [2] (setting [5]), 32%; in the experiment on gelatin [2] (0.2% lactobionic acid, Table 1) it was 49%. Besides, the “% Δb* (yellowness) from a treatment vs positive glycation control” value was 73% in the experiment with gelatin [2] (0.1% LBA, Table 1); 68% and 69% and 67% in the experiment on gelatin [2] (0.1% LBA, Table 5); 68% with gelatin [2] (setting [5]); 50% and 53% and 51% in the experiment on gelatin [2] (0.2% lactobionic acid, Table 1). The “Convert to % Δb* inhibition (100%-% Δb*)” value was 27% in the experiment on gelatin [2] (0.1% LBA, Table 1); 50% and 47% and 49% in the experiment on gelatin [2] (0.2% lactobionic acid, Table 1). Moreover, the “Convert to % Δb* inhibition (100-% Δb*)” value in the experiment on gelatin [2] (0.1% LBA, Table 5) is 32% and 31% and 33%; with gelatin [2] (setting [5]) it was 32%.
